What was measured:
Echinochloa crus-galli = assay: Foliar spray on potted weeds at two to three leaf stage in greenhouse, herbicidal effect (Example 101); type: in vivo, inubie (common barnyardgrass; Echinochloa crus-galli); settings: one week after spray
Description: (§1) A plastic pot was filled with a commercially-available culture soil, and thereto inubie (common barnyardgrass; Echinochloa crus-galli) or akinoenokorogusa (giant foxtail; Setaria faberi) was seeded, and covered with the soil to about 0.5 cm, followed by growing the weeds in a greenhouse. When the weeds grew to two to three leaf stage, a spray liquid of the compound X, a spray liquid of pyroxasulfone, or a spray liquid of the present composition was uniformly sprayed to the whole plants so that the application rate might be a predetermined value. The spray liquid of the present composition was prepared by mixing the spray liquid of the compound X with the spray liquid of pyroxasulfone. The spray liquid of the compound X was prepared by mixing a predetermined amount of the formulation X with deionized water. The spray liquid of pyroxasulfone was prepared by dissolving pyroxasulfone with a 2 wt % solution of TWEEN® (polyoxyethylenesorbitan fatty acid ester, manufactured by MP Biomedicals) in dimethylformamide, followed by mixing with deionized water. After applying the spray liquid, the plants were placed in a greenhouse for a week. A herbicidal effect was evaluated by classifying the effect into 101 stages from 0 (no effect) to 100 (completely dead).
(§2) The expected value of the herbicidal effect in the case of mixed use was calculated from the result of the herbicidal effect in the case of single use of each of the compounds (the value of A or B) according to the formula of Colby ((expected value)=100−(100−A)×(100−B)/100).

Setaria faberi = assay: as above; type: in vivo, akinoenokorogusa (giant foxtail; Setaria faberi); settings: one week after spray
Description: as §1, §2

[1] = Compound X 5 g/ha alone, scale 0 (no effect) to 100 (completely dead)
[2] = Compound X 10 g/ha alone, scale 0 to 100
[3] = pyroxasulfone 10 g/ha alone, scale 0 to 100
[4] = pyroxasulfone 100 g/ha alone, scale 0 to 100

| SMILES | Herbicidal effect on Echinochloa crus-galli (observed value) (Echinochloa crus-galli; [1]) | Herbicidal effect on Echinochloa crus-galli (observed value) (Echinochloa crus-galli; [2]) | Herbicidal effect on Setaria faberi (observed value) (Setaria faberi; [1]) | Herbicidal effect on Setaria faberi (observed value) (Setaria faberi; [2]) | Herbicidal effect on Echinochloa crus-galli (observed value) (Echinochloa crus-galli; [3]) | Herbicidal effect on Echinochloa crus-galli (observed value) (Echinochloa crus-galli; [4]) | Herbicidal effect on Setaria faberi (observed value) (Setaria faberi; [3]) | Herbicidal effect on Setaria faberi (observed value) (Setaria faberi; [4]) |
| --- | --- | --- | --- | --- | --- | --- | --- | --- |
| CCOC(=O)COc1ncccc1Oc1cc(-n2c(=O)cc(C(F)(F)F)n(C)c2=O)c(F)cc1Cl [Compound X, ethyl [3-[2-chloro-4-fluoro-5-(1-methyl-6-trifluoromethyl-2,4-dioxo-1,2,3,4-tetrahydropyrimidin-3-yl)phenoxy]-2-pyridyloxy]acetate] | 20 | 35 | 30 | 45 |  |  |  |  |
| Cn1nc(C(F)(F)F)c(CS(=O)(=O)C2=NOC(C)(C)C2)c1OC(F)F [pyroxasulfone] |  |  |  |  | 0 | 0 | 0 | 0 |
